The values below come from ChEMBL document CHEMBL5357082, “Identification and Optimization of Small Molecule Pyrazolopyrimidine TLR7 Agonists for Applications in Immuno-oncology” (ACS Med Chem Lett, 2024).

The structures appear in SMILES notation. Bounds are passed on as bounds.

Data set [1] concerns the target Voltage-gated inwardly rectifying potassium channel KCNH2 (Homo sapiens, UniProt Q12809). Kind of data set: Inhibition of hERG. In kind it is toxicity. For orientation: Block of hERG is tested as a sign of cardiac risk.
Data set [2] is described as follows: Half life in nontumor bearing Balb/C mouse at 0.5 mg/kg. The data set is classed as ADME, organism-based. Conditions: in vivo.
The target of the next data set is Cytochrome P450 2C19 (Homo sapiens, UniProt P33261). Kind of data set: Inhibition of CYP2C19 (unknown origin). The data set is classed as ADME.
Sequence of Cytochrome P450 2C19 (P33261 whole entry): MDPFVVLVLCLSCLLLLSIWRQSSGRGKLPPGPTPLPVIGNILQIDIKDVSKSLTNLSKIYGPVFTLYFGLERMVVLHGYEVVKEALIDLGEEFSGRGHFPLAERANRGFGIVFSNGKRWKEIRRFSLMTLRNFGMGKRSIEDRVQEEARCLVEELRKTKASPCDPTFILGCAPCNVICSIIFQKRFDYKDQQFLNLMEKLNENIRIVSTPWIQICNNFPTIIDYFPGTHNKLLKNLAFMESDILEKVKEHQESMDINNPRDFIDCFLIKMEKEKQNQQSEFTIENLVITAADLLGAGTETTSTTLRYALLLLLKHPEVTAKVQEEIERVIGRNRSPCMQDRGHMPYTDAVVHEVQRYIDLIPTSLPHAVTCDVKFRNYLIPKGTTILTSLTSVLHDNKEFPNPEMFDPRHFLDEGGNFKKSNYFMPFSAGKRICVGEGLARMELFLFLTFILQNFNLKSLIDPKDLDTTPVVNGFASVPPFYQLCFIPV
The target of data set [3] is T1, Toll-like receptor 7 (Homo sapiens, UniProt Q9NYK1).
T1 sequence (Q9NYK1 whole entry): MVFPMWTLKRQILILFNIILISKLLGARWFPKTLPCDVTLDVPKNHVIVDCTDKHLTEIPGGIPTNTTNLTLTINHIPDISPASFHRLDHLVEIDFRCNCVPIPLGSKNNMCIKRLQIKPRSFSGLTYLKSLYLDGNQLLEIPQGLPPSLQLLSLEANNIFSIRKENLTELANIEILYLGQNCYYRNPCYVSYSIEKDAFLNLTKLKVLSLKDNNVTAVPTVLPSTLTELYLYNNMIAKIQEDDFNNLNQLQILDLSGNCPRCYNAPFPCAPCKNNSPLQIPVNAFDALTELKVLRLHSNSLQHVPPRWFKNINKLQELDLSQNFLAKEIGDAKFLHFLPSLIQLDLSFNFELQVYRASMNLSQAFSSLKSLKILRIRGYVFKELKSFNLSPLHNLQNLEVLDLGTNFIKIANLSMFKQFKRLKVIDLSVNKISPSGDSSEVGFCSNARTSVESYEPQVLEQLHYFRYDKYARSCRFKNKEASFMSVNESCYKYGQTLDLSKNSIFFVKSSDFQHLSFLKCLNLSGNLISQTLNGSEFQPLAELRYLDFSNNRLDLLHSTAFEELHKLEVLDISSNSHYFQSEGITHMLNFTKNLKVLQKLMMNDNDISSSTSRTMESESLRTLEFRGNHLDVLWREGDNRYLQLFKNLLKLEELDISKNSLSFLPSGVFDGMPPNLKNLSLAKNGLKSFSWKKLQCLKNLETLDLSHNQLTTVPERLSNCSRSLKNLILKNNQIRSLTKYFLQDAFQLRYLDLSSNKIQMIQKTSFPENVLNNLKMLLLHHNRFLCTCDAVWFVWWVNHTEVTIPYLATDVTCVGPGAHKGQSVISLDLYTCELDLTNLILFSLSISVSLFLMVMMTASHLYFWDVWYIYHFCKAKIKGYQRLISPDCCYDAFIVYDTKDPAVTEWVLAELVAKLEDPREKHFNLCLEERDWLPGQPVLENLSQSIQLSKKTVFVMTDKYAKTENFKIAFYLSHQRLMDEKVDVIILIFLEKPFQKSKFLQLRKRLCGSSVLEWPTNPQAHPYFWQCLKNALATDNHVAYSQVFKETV
The data set can be described thus: Agonist activity at human TLR7 in HEK-Blue hTLR7 cells harboring SEAP reporter transgene incubated for 18 hrs by quanti-blue reagent based assay. In kind it is cell-based.

Data set [4] can be described thus: Metabolic stability in human liver microsomes assessed as compound remaining at 0.5 uM incubated for 10 mins in presence of NADPH by UV absorbance based assay. In kind it is ADME, Microsome. Conditions: read-out: Stability. On the technique in general: Liver microsomes are vesicles of endoplasmic reticulum, rich in cytochrome P450 enzymes.
The target in the next data set is T2, Cytochrome P450 2C8 (Homo sapiens, UniProt P10632).
T2 sequence (P10632 whole entry): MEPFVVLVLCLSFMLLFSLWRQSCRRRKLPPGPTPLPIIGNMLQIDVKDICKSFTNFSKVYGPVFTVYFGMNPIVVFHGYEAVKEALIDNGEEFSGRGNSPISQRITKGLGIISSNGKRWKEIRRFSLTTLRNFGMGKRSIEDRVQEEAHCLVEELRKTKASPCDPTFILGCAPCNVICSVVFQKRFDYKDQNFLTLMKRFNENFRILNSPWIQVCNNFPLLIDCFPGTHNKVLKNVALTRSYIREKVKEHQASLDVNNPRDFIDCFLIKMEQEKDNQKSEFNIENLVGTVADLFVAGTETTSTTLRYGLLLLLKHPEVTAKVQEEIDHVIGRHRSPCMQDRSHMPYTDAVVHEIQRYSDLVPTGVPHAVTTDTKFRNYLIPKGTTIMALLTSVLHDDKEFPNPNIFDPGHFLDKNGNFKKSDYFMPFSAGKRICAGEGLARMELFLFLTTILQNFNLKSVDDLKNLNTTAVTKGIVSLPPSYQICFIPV
The data set can be described thus: Inhibition of CYP2C8 (unknown origin). In kind it is ADME.

In another data set the target is Cytochrome P450 3A4 (Homo sapiens, UniProt P08684). The data set can be described thus: Inhibition of CYP3A4 (unknown origin) using BFC as substrate. In kind it is ADME.
Sequence of Cytochrome P450 3A4 (P08684 whole entry): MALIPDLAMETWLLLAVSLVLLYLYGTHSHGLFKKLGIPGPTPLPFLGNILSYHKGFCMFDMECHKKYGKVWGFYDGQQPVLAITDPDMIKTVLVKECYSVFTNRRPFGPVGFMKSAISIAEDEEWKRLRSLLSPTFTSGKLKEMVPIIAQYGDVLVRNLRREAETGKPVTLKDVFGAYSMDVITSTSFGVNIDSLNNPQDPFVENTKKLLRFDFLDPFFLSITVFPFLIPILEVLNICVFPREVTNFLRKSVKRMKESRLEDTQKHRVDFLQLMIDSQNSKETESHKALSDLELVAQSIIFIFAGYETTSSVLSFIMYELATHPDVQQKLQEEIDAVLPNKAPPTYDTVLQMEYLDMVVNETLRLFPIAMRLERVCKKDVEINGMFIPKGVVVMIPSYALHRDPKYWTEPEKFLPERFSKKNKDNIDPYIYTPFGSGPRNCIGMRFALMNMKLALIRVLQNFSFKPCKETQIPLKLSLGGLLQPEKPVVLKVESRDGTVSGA
Data set [5] in a line: AUClast in nontumor bearing Balb/C mouse at 0.5 mg/kg. The data set is classed as ADME, organism-based. More on the design: dose 0.5 mg/kg. Conditions: in vivo.
Data set [6] can be described thus: Drug concentration in nontumor bearing Balb/C mouse at 0.5 mg/kg measured after 5 mins. The data set is classed as ADME, organism-based. Conditions: in vivo, read-out: Drug uptake.
In data set [7] the target is T3, Toll-like receptor 7 (Mus musculus, UniProt P58681).
T3 sequence (P58681 whole entry): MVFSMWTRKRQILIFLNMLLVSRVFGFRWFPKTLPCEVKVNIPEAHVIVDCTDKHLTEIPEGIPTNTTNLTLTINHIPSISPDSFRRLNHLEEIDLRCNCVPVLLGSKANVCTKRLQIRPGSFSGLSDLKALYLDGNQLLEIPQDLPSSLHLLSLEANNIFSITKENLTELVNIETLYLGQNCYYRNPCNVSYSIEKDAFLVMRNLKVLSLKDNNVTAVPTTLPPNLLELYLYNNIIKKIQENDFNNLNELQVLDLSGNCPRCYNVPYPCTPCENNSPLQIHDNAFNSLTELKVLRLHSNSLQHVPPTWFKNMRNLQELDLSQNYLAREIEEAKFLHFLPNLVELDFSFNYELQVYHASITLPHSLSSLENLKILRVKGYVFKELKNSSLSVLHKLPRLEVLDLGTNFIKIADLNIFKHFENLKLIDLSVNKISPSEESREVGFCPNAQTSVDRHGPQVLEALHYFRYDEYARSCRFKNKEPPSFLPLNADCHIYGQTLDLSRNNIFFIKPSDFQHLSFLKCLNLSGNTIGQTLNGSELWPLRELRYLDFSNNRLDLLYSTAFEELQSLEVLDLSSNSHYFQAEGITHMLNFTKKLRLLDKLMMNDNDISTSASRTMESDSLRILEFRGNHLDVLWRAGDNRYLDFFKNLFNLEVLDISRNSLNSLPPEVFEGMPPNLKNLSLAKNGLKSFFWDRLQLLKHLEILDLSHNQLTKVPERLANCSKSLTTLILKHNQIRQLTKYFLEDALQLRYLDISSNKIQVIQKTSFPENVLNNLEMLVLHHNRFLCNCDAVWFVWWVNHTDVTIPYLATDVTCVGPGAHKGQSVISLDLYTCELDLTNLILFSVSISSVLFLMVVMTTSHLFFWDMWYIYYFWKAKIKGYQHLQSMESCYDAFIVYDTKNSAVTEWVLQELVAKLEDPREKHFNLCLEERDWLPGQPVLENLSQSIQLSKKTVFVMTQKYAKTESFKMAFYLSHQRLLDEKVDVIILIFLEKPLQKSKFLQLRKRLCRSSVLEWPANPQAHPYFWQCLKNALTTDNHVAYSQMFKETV
The data set can be described thus: Agonist activity at mouse TLR7.

The next data set addresses Cytochrome P450 2C9 (Homo sapiens, UniProt P11712). Kind of data set: Inhibition of CYP2C9 (unknown origin). The data set is classed as ADME.

Sequence of Voltage-gated inwardly rectifying potassium channel KCNH2 (Q12809 whole entry): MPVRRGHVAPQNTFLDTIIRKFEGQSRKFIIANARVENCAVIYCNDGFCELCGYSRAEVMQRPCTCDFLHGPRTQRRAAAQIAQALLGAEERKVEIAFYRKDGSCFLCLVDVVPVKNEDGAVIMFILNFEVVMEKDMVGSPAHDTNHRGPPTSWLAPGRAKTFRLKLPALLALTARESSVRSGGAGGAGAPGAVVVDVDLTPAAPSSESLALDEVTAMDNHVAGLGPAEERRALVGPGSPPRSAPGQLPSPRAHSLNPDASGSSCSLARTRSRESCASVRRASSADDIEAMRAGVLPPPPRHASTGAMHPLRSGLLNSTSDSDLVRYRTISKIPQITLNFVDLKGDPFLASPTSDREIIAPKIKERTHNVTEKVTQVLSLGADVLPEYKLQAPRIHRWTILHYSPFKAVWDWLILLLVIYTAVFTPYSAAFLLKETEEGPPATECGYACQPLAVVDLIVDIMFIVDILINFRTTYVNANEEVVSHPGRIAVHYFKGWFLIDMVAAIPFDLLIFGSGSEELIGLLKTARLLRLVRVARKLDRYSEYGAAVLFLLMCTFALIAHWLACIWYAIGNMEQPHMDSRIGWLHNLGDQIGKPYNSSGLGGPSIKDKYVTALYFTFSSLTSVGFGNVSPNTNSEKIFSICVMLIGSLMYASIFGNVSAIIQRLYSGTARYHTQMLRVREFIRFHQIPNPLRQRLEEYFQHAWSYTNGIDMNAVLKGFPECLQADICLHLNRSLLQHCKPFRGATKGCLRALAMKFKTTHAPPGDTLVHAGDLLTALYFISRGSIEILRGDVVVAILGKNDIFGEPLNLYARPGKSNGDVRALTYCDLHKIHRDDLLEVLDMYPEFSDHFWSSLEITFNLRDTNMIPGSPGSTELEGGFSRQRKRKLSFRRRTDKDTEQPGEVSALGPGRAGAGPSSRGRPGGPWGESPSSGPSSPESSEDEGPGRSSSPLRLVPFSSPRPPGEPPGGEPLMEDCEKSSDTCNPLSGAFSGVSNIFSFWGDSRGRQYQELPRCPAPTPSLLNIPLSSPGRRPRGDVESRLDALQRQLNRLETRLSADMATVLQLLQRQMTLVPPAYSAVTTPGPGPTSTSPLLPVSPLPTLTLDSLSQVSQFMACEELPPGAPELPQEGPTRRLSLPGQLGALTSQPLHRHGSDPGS
Sequence of Cytochrome P450 2C9 (P11712 whole entry): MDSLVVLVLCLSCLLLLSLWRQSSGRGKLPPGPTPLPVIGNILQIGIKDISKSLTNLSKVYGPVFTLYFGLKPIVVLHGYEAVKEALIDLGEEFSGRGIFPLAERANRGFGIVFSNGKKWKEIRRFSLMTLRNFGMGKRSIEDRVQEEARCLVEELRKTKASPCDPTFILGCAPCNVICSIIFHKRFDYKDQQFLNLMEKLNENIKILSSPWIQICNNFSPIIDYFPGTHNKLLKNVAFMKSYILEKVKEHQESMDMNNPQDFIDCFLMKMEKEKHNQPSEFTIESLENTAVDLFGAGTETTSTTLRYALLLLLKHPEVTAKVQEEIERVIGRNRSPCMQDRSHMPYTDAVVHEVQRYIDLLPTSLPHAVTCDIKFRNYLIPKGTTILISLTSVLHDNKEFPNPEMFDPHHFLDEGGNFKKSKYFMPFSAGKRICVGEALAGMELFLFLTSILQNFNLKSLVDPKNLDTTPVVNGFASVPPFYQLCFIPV

Broadly, the IC50 is the midpoint of a concentration-inhibition curve. By half-life is commonly meant the time needed for the level to fall by half in the phase considered. In general, EC50 refers to the concentration that produces a half-maximal response. High values mean lower potency in that assay, low ones higher potency in that assay. What is called AUC(0-t) is exposure summed from dosing to a finite time, without extrapolation to infinity. Read a low AUC(0-t) as less exposure. For `CCC[C@@H](CCO)Nc1nc(N)nc2cnn(Cc3ncc(C4CCN(C5CCOCC5)CC4)cc3OC)c12`, the IC50 in [1] is over 50 µM; at Cytochrome P450 2C19, over 20 µM; against Cytochrome P450 2C8, over 20 µM; against Cytochrome P450 3A4 it was over 20 µM; on Cytochrome P450 2C9, over 20 µM. For the same compound, the half-life in data set [2] is 6.9 h. Also, the EC50 on Toll-like receptor 7 [3] worked out at 0.013 µM; on Toll-like receptor 7 [7], 0.027 µM. Further, the remaining at 10 min, 0.5 µM in data set [4] amounted to 86%. This compound also came in with an AUC(0-t) in [5] of 0.655 µM·h. In addition, the concentration at 5 min in data set [6] stood at 266 nM.
